Test results from ChEMBL document CHEMBL1201862, “PubChem BioAssay data set” (2004).
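1) Cells in 96-well plates. 2) Compound, 48 h, 5 concentrations. 3) Linear interpolation between surrounding doses. 4) Unreached endpoint = highest concentration. At the GI50, growth is halved.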 Calls of active or inactive are those of the source. Rule as the data show it: active = GI50 up to about 1.1 µM and inactive = higher.

Assays:
Experiment in all cases: growth of human tumour cells (NCI), 48 h
Hs-578T = test system: Hs-578T
OVCAR-5 = test system: OVCAR-5
CCRF-CEM = test system: CCRF-CEM
M14 = test system: M14
MOLT-4 = test system: MOLT-4
NCI-H226 = test system: NCI-H226
OVCAR-3 = test system: OVCAR-3
EKVX = test system: EKVX
A549 = test system: A549
PC-3 = test system: PC-3
OVCAR-8 = test system: OVCAR-8
T47D = test system: T47D
SK-MEL-2 = test system: SK-MEL-2
SN12C = test system: SN12C
ACHN = test system: ACHN
COLO 205 = test system: COLO 205
HCT-15 = test system: HCT-15
CAKI-1 = test system: CAKI-1
UACC-257 = test system: UACC-257
K562 = test system: K562
HT-29 = test system: HT-29
MDA-N = test system: MDA-N
SF-295 = test system: SF-295
HL-60 = test system: HL-60
MDA-MB-231 = test system: MDA-MB-231
SR = test system: SR
HCC 2998 = test system: HCC 2998
RPMI-8226 = test system: RPMI-8226
LOX IMVI = test system: LOX IMVI
SK-MEL-5 = test system: SK-MEL-5
HOP-92 = test system: HOP-92
786-0 = test system: 786-0
MCF7 = test system: MCF7
OVCAR-4 = test system: OVCAR-4
MDA-MB-435 = test system: MDA-MB-435
IGROV-1 = test system: IGROV-1
HCT-116 = test system: HCT-116
NCI/ADR-RES = test system: NCI/ADR-RES
SNB-75 = test system: SNB-75
Malme-3M = test system: Malme-3M
SNB-19 = test system: SNB-19
RXF 393 = test system: RXF 393
SF-539 = test system: SF-539
TK-10 = test system: TK-10
SK-MEL-28 = test system: SK-MEL-28
DU-145 = test system: DU-145
NCI-H460 = test system: NCI-H460
BT-549 = test system: BT-549
SF-268 = test system: SF-268
HOP-62 = test system: HOP-62
NCI-H23 = test system: NCI-H23
SW-620 = test system: SW-620
NCI-H522 = test system: NCI-H522
UO-31 = test system: UO-31
KM12 = test system: KM12
U-251 = test system: U-251
UACC-62 = test system: UACC-62
SK-OV-3 = test system: SK-OV-3

For `CC(=O)N1C(OC(C)C)CC(C)N1c1ccccc1` (stereo not given), the GI50 (Hs-578T) was > 10 µM (inactive), the GI50 (OVCAR-5) was > 10 µM (inactive) and the GI50 (CCRF-CEM) was > 10 µM (inactive). For the same compound, the GI50 (M14) was > 10 µM (inactive), the GI50 (MOLT-4) was > 10 µM (inactive) and the GI50 (NCI-H226) was > 10 µM (inactive). The GI50 (OVCAR-3) was > 10 µM (inactive), the GI50 (EKVX) was > 10 µM (inactive) and the GI50 (A549) was > 10 µM (inactive). For the same compound, the GI50 (PC-3) was > 10 µM (inactive), the GI50 (OVCAR-8) was > 10 µM (inactive) and the GI50 (T47D) was > 10 µM (inactive). For the same compound, the GI50 (SK-MEL-2) was > 10 µM (inactive), the GI50 (SN12C) was > 10 µM (inactive) and the GI50 (ACHN) was > 10 µM (inactive). The GI50 (COLO 205) was > 10 µM (inactive), the GI50 (HCT-15) was over 10 µM and the GI50 (CAKI-1) was > 10 µM (inactive). For the same compound, the GI50 (UACC-257) was > 10 µM (inactive), the GI50 (K562) was > 10 µM (inactive) and the GI50 (HT-29) was > 10 µM (inactive). For the same compound, the GI50 (MDA-N) was > 10 µM (inactive), the GI50 (SF-295) was > 10 µM (inactive) and the GI50 (HL-60) was > 10 µM (inactive). For the same compound, the GI50 (MDA-MB-231) was > 10 µM (inactive), the GI50 (SR) was > 10 µM (inactive) and the GI50 (HCC 2998) was > 10 µM (inactive). For the same compound, the GI50 (RPMI-8226) was > 10 µM (inactive), the GI50 (LOX IMVI) was > 10 µM (inactive) and the GI50 (SK-MEL-5) was > 10 µM (inactive). For the same compound, the GI50 (HOP-92) was > 10 µM (inactive), the GI50 (786-0) was > 10 µM (inactive) and the GI50 (MCF7) was > 10 µM (inactive). For the same compound, the GI50 (OVCAR-4) was > 10 µM (inactive), the GI50 (MDA-MB-435) was > 10 µM (inactive) and the GI50 (IGROV-1) was > 10 µM (inactive). The GI50 (HCT-116) was > 10 µM (inactive), the GI50 (NCI/ADR-RES) was > 10 µM (inactive) and the GI50 (SNB-75) was > 10 µM (inactive). The GI50 (Malme-3M) was > 10 µM (inactive), the GI50 (SNB-19) was > 10 µM (inactive) and the GI50 (RXF 393) was > 10 µM (inactive). For the same compound, the GI50 (SF-539) was > 10 µM (inactive), the GI50 (TK-10) was > 10 µM (inactive) and the GI50 (SK-MEL-28) was > 10 µM (inactive). The GI50 (DU-145) was > 10 µM (inactive), the GI50 (NCI-H460) was > 10 µM (inactive) and the GI50 (BT-549) was > 10 µM (inactive). The GI50 (SF-268) was > 10 µM (inactive), the GI50 (HOP-62) was > 10 µM (inactive) and the GI50 (NCI-H23) was > 10 µM (inactive). For the same compound, the GI50 (SW-620) was > 10 µM (inactive).
For `CC(C)OP(=O)(CCCCCCCCC/C=C/c1ccc2c(c1)OCCOCCOCCOCCO2)OC(C)C`, the GI50 (Hs-578T) was 2.45 µM (inactive), the GI50 (NCI-H522) was 2.76 µM (inactive) and the GI50 (OVCAR-5) was 3.42 µM (inactive). The GI50 (CCRF-CEM) was 2.71 µM (inactive), the GI50 (M14) was 3.52 µM (inactive) and the GI50 (MOLT-4) was 3.04 µM (inactive). The GI50 (NCI-H226) was 3.37 µM (inactive), the GI50 (OVCAR-3) was 2.61 µM (inactive) and the GI50 (EKVX) was 3.79 µM (inactive). For the same compound, the GI50 (A549) was 3.49 µM (inactive), the GI50 (PC-3) was 2.84 µM (inactive) and the GI50 (OVCAR-8) was 3.15 µM (inactive). For the same compound, the GI50 (T47D) was 2.79 µM (inactive), the GI50 (SK-MEL-2) was 2.96 µM (inactive) and the GI50 (SN12C) was 3.36 µM (inactive). For the same compound, the GI50 (ACHN) was 3.48 µM (inactive), the GI50 (COLO 205) was 1.99 µM (inactive) and the GI50 (HCT-15) was 2.46 µM. The GI50 (CAKI-1) was 3.51 µM (inactive), the GI50 (UACC-257) was 2.88 µM (inactive) and the GI50 (K562) was 6.37 µM (inactive). The GI50 (HT-29) was 3.05 µM (inactive), the GI50 (UO-31) was 2.72 µM (inactive) and the GI50 (KM12) was 2.8 µM (inactive). For the same compound, the GI50 (MDA-N) was 3.4 µM (inactive), the GI50 (SF-295) was 3.08 µM (inactive) and the GI50 (HL-60) was 7.67 µM (inactive). The GI50 (MDA-MB-231) was 2.85 µM (inactive), the GI50 (SR) was 4.22 µM (inactive) and the GI50 (HCC 2998) was 4.04 µM (inactive). For the same compound, the GI50 (RPMI-8226) was 1.41 µM (inactive), the GI50 (LOX IMVI) was 2.16 µM (inactive) and the GI50 (SK-MEL-5) was 2.74 µM (inactive). For the same compound, the GI50 (HOP-92) was 2.2 µM (inactive), the GI50 (U-251) was 2.75 µM (inactive) and the GI50 (786-0) was 3.78 µM (inactive). The GI50 (MCF7) was 3.23 µM (inactive), the GI50 (OVCAR-4) was 4.8 µM (inactive) and the GI50 (MDA-MB-435) was 3.87 µM (inactive). The GI50 (UACC-62) was 3.79 µM (inactive), the GI50 (SK-OV-3) was 3.19 µM (inactive) and the GI50 (IGROV-1) was 4.46 µM (inactive). The GI50 (HCT-116) was 3.38 µM (inactive), the GI50 (NCI/ADR-RES) was 2.98 µM (inactive) and the GI50 (SNB-75) was 3.01 µM (inactive). The GI50 (Malme-3M) was 3.73 µM (inactive), the GI50 (SNB-19) was 3.41 µM (inactive) and the GI50 (RXF 393) was 2.7 µM (inactive). For the same compound, the GI50 (SF-539) was 2.62 µM (inactive), the GI50 (TK-10) was 9.29 µM (inactive) and the GI50 (SK-MEL-28) was 6.61 µM (inactive). For the same compound, the GI50 (DU-145) was 4.59 µM (inactive), the GI50 (NCI-H460) was 2.61 µM (inactive) and the GI50 (BT-549) was 3.03 µM (inactive). The GI50 (SF-268) was 3.8 µM (inactive), the GI50 (HOP-62) was 2.42 µM (inactive) and the GI50 (NCI-H23) was 2.85 µM (inactive). For the same compound, the GI50 (SW-620) was 3.82 µM (inactive).
